In patent US8703722B2, “Inhibitors of F18+ E coli binding” (priority 2008, dated 2014):

Experiments:
[1] = system: F18-positive E. coli strain 107/86; test: Carbohydrate inhibition in the in vitro villous adhesion assay (bacteria pre-incubated with saccharide); type: cell-based, Escherichia coli; conditions: for Inhibition of F18+ E. coli adherence to porcine intestinal villi: Example 18, 1 mg saccharide in 100 μl PBS
Source text: (§1) The nature of the F18R on porcine small intestinal villous enterocytes was investigated using an in vitro villous adhesion inhibition assay (Cox, E., Houvenaghel, A., 1993. Vet. Microbiol. 34(1), 7-18; Verdonck, F., Cox, E., van Gog, K., Van der Stede, Y., Duchateau, L., Deprez, P., Goddeeris, B. M., 2002. Vaccine 20(23-24), 2995-3004). Briefly, a 20 cm intestinal segment was collected from the mid jejunum of a euthanized pig, rinsed three times with ice cold PBS, and fixed with Krebs-Henseleit buffer (160 mM, pH 7.4) containing 1% (v/v) formaldehyde for 30 min at 4° C. Thereafter, the villi were gently scraped from the mucosae with a glass slide and stored in Krebs-Henseleit buffer at 4° C. Treatment of villi with acetone, methanol, 1% Triton® X-100, 10 mM NaIO4 in 0.2M sodium acetate, pH 4.5, or 0.2M sodium acetate, pH 4.5, without NaIO4, respectively, was performed at room temperature on a rotating wheel in a volume of 500 μl during 1 h. Next, the villi were washed 6 times with Krebs-Henseleit buffer followed by addition of 4×10^8 bacteria of the F18 positive reference E. coli strain (107/86), or the F4ac-expressing E. coli strain GIS 26, to an average of 50 villi in a total volume of 500 μl PBS, supplemented with 1% (w/v) D-mannose in order to prevent adhesion mediated by type 1 pili. These mixtures were incubated at room temperature for 1 h while being gently shaken. Villi were examined by phase-contrast microscopy at a magnification of 600, and the number of bacteria adhering along 50 μm brush border was quantitatively evaluated by counting the number of adhering bacteria at 20 randomly selected places, after which the mean bacterial adhesion was calculated.
The F18-positive E. coli strain 107/86 (8×10^7 bacteria) was incubated with different concentrations (10 mg/ml, 1 mg/ml, […]) of blood group H type 1 pentasaccharide (Fucα2Galβ3GlcNAcβ3Galβ4Glc) or lacto-N-tetraose saccharide (Galβ3GlcNAcβ3Galβ4Glc) (Glycoseparations, Moscow, Russia) in a final volume of 100 μl PBS, for 1 h at room temperature, while being gently shaken. The mixtures were then added to the villi, and again incubated for 1 h at room temperature with gentle shaking. Thereafter, the villi were examined by phase-contrast microscopy at a magnification of 600, and the number of bacteria adhering along a […] brush border was quantitatively evaluated by counting the number of adhering bacteria at 20 randomly selected places, after which the mean bacterial adhesion was calculated. Villi of two different F18R-positive pigs were used, and the countings were performed in triplicate.
The F18-positive E. coli strain 107/86 (8×10^7 bacteria) was incubated with 1 mg of blood group H type 1 pentasaccharide (H5-1, Fucα2Galβ3GlcNAcβ3Galβ4Glc), blood group A type 1 hexasaccharide (A6-1, GalNAcα3(Fucα2)Galβ3GlcNAcβ3Galβ4Glc), blood group B type 1 hexasaccharide (B6-1, Galα3(Fucα2)Galβ3GlcNAcβ3Galβ4Glc) or lacto-N-tetraose saccharide (LNT, Galβ3GlcNAcβ3Galβ4Glc) (Elicityl, Grenoble, France) in a final volume of 100 μl PBS, for 1 h at room temperature, while being gently shaken. The mixtures were then added to the villi, and again incubated for 1 h at room temperature with gentle shaking. Thereafter, the villi were examined by phase-contrast microscopy, and adhering bacteria were quantified as described above. Villi of two different F18R-positive pigs were used, and the countings were performed in triplicate.
The mixtures were then added to the villi, and again incubated for 1 h at room temperature with gentle shaking. Thereafter, the villi were examined by phase-contrast microscopy, and adhering bacteria were quantified as described above. Villi of one F18R-positive pig was used, and the countings were performed in duplicate.

[2] = system: F18 positive reference E. coli strain (107/86); test: In vitro villous adhesion assay after treatment of porcine villi with agents; type: cell-based, Escherichia coli; conditions: villi of four pigs treated 1 h at room temperature; 1% Triton X-100; 10 mM NaIO4 in 0.2M sodium acetate pH 4.5
Source text: as §1
(§2) To examine the character of the F18R, intestinal villi isolated from four pigs were treated with different agents that affect lipids or carbohydrates on the enterocyte cell membrane. Treatment was followed by assessment of adhesion of F18-fimbriated E. coli to the villus epithelium.

[3] = system: F4ac-expressing E. coli strain GIS 26; test: In vitro villous adhesion assay after treatment of porcine villi with agents (control strain); type: cell-based, Escherichia coli; conditions: villi treated 1 h at room temperature; 1% Triton X-100; 10 mM NaIO4 in 0.2M sodium acetate pH 4.5
Source text: as §1, §2

[4] = system: recombinant F18 fimbriae-expressing Escherichia coli (pIH120); test: Chromatogram binding assay: 35S-labelled F18 fimbriae-expressing E. coli to glycosphingolipids on thin-layer chromatograms; conditions: for Binding of F18-fimbriated E. coli (in words): chromatogram binding assay, F18-expressing strain HB101(pIH120); for Detection limit of binding of F18-fimbriated E. coli: dilutions of glycosphingolipids on thin-layer chromatograms
Protocol: Recombinant E. coli strains expressing whole F18 fimbriae (HB101(pIH120), or F18 fimbriae with deletion of the FedF adhesive subunit (HB101(pIH126)) (Imberechts et al., 1992; 1996), were grown on Iso Sensitest agar plates (Oxoid, Basingstoke, Hampshire, England) supplemented with ampicillin (100 μg/ml) at 37° C. over night. For metabolic labeling, the culture plates were supplemented with 10 μl ^35S-methionine (400 μCi; Amersham Pharmacia Biotech). Bacteria were harvested, washed three times in PBS, and resuspended in PBS containing 2% (w/v) bovine serum albumin, 0.1% (w/v) NaN3 and 0.1% (w/v) Tween 20 (BSA/PBS/TWEEN) to a bacterial density of 1×10^8 colony forming units/ml.
Aluminium- or glass-backed silica gel 60 high performance thin-layer chromatography plates (Merck, Darmstadt, Germany) were used for thin-layer chromatography, and eluted with chloroform/methanol/water (60:35:8, by volume) as solvent system. The different glycosphingolipids were applied to the plates in quantities of 0.002-4 μg of pure glycosphingolipids and 40 μg of glycosphingolipid mixtures. Chemical detection was done with anisaldehyde (Waldi D, 1962. Sprühreagentien für die dünnschicht-chromatographie, p. 496-515. In Stahl, E. (ed.), Dünnschicht-Chromatographie. Springer-Verlag, Berlin).
Binding of radiolabelled bacteria to glycosphingolipids on thin-layer chromatograms was done as described previously (Hansson G C, Karlsson K-A, Larson G, Strömberg N, Thurin J, 1985. Anal. Biochem. 146:158-163). Dried chromatograms were dipped in diethylether/n-hexane (1:5 v/v) containing 0.5% (w/v) polyisobutylmethacrylate for 1 min, dried, and then blocked with BSA/PBS/TWEEN for 2 h at room temperature. Thereafter, the plates were incubated with ^35S-labeled bacteria (1-5×10^6 cpm/ml) diluted in BSA/PBS/TWEEN for another 2 h at room temperature. After washing six times with PBS, and drying, the thin-layer plates were autoradiographed for 12 h using XAR-5 x-ray films (Eastman Kodak, Rochester, N.Y.).

[5] = 1 h pre-incubation, villi of two pigs
[6] = Example 17, 1 mg/ml saccharide, 100 μl PBS, 1 h pre-incubation, villi of two pigs
[7] = Example 17, 10 mg/ml saccharide, 100 μl PBS, 1 h pre-incubation, villi of two pigs
[8] = Example 17, 100 mg/ml saccharide (so in the source), 100 μl PBS, 1 h pre-incubation, villi of two pigs

CC(=O)NC1C(OC2C(O)C(CO)OC(OC3C(O)C(CO)OC(OC4C(O)C(CO)OC(OC5C(CO)OC(O)C(O)C5O)C4O)C3NC(C)=O)C2OC2OC(C)C(O)C(O)C2O)OC(CO)C(O)C1O (centres unmarked) [A6-1, GalNAcα3(Fucα2)Galβ3GlcNAcβ3Galβ4Glc]
Inhibition of F18+ E. coli adherence to porcine intestinal villi [1, 5]: 72.9%

CC(=O)NC1C(OC2C(O)C(CO)OC(OC3C(CO)OC(O)C(O)C3O)C2O)OC(CO)C(O)C1OC1OC(CO)C(O)C(OC2OC(CO)C(O)C(O)C2O)C1OC1OC(C)C(O)C(O)C1O (centres unmarked) [B6-1, Galα3(Fucα2)Galβ3GlcNAcβ3Galβ4Glc]
Inhibition of F18+ E. coli adherence to porcine intestinal villi [1, 5]: 86.8%

CC(=O)N[C@H]1[C@H](O[C@H]2[C@@H](O)[C@@H](CO)O[C@@H](O[C@H]3[C@H](O)[C@@H](O)C(O)O[C@@H]3CO)[C@@H]2O)O[C@H](CO)[C@@H](O)[C@@H]1O[C@@H]1O[C@H](CO)[C@H](O)[C@H](O)[C@H]1O[C@@H]1O[C@@H](C)[C@@H](O)[C@@H](O)[C@@H]1O (some centres unmarked) [H5-1, Fucα2Galβ3GlcNAcβ3Galβ4Glc]
Reduction (inhibition) of adherence of F18-positive E. coli to porcine intestinal villi [1, 6]: 68.5% | Reduction (inhibition) of adherence of F18-positive E. coli to porcine intestinal villi [1, 7]: 87.1% | Inhibition of adherence of F18-positive E. coli to porcine intestinal villi [1, 8]: 1.4% | Inhibition of F18+ E. coli adherence to porcine intestinal villi [1, 5]: 52.4%

CC(=O)N[C@H]1[C@H](O[C@H]2[C@@H](O)[C@@H](CO)O[C@@H](O[C@H]3[C@H](O)[C@@H](O)C(O)O[C@@H]3CO)[C@@H]2O)O[C@H](CO)[C@@H](O)[C@@H]1O[C@@H]1O[C@H](CO)[C@H](O)[C@H](O)[C@H]1O (some centres unmarked) [LNT, Galβ3GlcNAcβ3Galβ4Glc, reference compound]
Reduction (inhibition) of adherence of F18-positive E. coli to porcine intestinal villi [1, 6]: 5.8% | Reduction (inhibition) of adherence of F18-positive E. coli to porcine intestinal villi [1, 7]: 5.8% | Inhibition of adherence of F18-positive E. coli to porcine intestinal villi [1, 8]: 4.2% | Inhibition of F18+ E. coli adherence to porcine intestinal villi [1, 5]: 2.8%

[Na+].[O-][I+3]([O-])([O-])[O-] [NaIO4]
Adhesion of F18-fimbriated E. coli to porcine intestinal villi after treatment of the villi [2]: completely abolished | Adhesion of control F4ac-fimbriated E. coli strain to porcine intestinal villi after treatment of the villi [3]: abolished

CC(C)=O [acetone]
Adhesion of F18-fimbriated E. coli to porcine intestinal villi after treatment of the villi [2]: completely abolished | Adhesion of control F4ac-fimbriated E. coli strain to porcine intestinal villi after treatment of the villi [3]: no or only little effect

C[C@@H]1O[C@@H](O[C@H]2C(O)O[C@H](CO)[C@H](O)[C@@H]2O)[C@@H](O)[C@H](O)[C@@H]1O (some centres unmarked) [blood group H disaccharide, Fucα2Gal]
Inhibition of adherence of F18-positive E. coli to porcine intestinal villi ([1]; Example 21, 0.2 mg in 100 μl PBS, villi of one pig): 5.1% | Reduction of adherence of F18-positive E. coli to porcine intestinal villi ([1]; Example 21, 1 mg in 100 μl PBS, villi of one pig): 83.7%

Fucα2Galβ3(Fucα4)GlcNAcβ3Galβ4Glcβ1Cer [No. 22, reference compound]
Binding of F18-fimbriated E. coli (in words) [4]: not recognized

Fucα2Galβ3GalNAcβ4Galβ4Glcβ1Cer [No. 11, reference compound]
Binding of F18-fimbriated E. coli (in words) [4]: absence of binding

Fucα2Galβ3GlcNAcβ3Galβ4Glcβ1Cer [No. 23]
Binding of F18-fimbriated E. coli (in words) ([4]; listed as H type 1 pentaglycosylceramide): bound | Detection limit of binding of F18-fimbriated E. coli [4]: 2 µg

Fucα2Galβ3GlcNAcβ3Galβ4Glcβ1Cer [O-I]
Binding of F18-fimbriated E. coli (in words) [4]: F18 fimbriae-binding

Fucα2Galβ4GlcNAcβ3Galβ4Glcβ1Cer [No. 14, reference compound]
Binding of F18-fimbriated E. coli (in words) [4]: no type 2 core counterparts of these compounds were recognized

GalNAcα3(Fucα2)Galβ3(Fucα4)GlcNAcβ3Galβ4Glcβ1Cer [No. 26]
Binding of F18-fimbriated E. coli (in words) [4]: bound | Detection limit of binding of F18-fimbriated E. coli [4]: 0.8 µg

GalNAcα3(Fucα2)Galβ3GalNAcβ3Galα4Galβ4Glcβ1Cer [No. 32]
Detection limit of binding of F18-fimbriated E. coli [4]: approximately 0.8 μg

GalNAcα3(Fucα2)Galβ3GlcNAcβ3Galβ4Glcβ1Cer [A-I]
Binding of F18-fimbriated E. coli (in words) [4]: F18-fimbriated E. coli binding

GalNAcα3(Fucα2)Galβ3GlcNAcβ3Galβ4Glcβ1Cer [No. 25]
Binding of F18-fimbriated E. coli (in words) ([4]; listed as A type 1 hexaglycosylceramide): bound | Detection limit of binding of F18-fimbriated E. coli [4]: approximately 0.08 μg

GalNAcα3(Fucα2)Galβ4(Fucα3)GlcNAcβ3Galβ4Glcβ1Cer [No. 19, reference compound]
Binding of F18-fimbriated E. coli (in words) [4]: no type 2 core counterparts of these compounds were recognized

GalNAcα3(Fucα2)Galβ4GlcNAcβ3Galβ4Glcβ1Cer [No. 17, reference compound]
Binding of F18-fimbriated E. coli (in words) [4]: no type 2 core counterparts of these compounds were recognized

Galα3(Fucα2)Galβ3(Fucα4)GlcNAcβ3Galβ4Glcβ1Cer [No. 27]
Binding of F18-fimbriated E. coli (in words) [4]: bound

Galα3(Fucα2)Galβ3GlcNAcβ3Galβ4Glcβ1Cer [No. 24]
Binding of F18-fimbriated E. coli (in words) [4]: bound | Detection limit of binding of F18-fimbriated E. coli [4]: approximately 0.08 μg

Galα3(Fucα2)Galβ4GlcNAcβ3Galβ4Glcβ1Cer [No. 16, reference compound]
Binding of F18-fimbriated E. coli (in words) [4]: no type 2 core counterparts of these compounds were recognized

Galβ3GlcNAcβ3Galβ4Glcβ1Cer [No. 20, reference compound]
Binding of F18-fimbriated E. coli (in words) [4]: devoid of FedF-mediated binding activity
